Consider 5 molecules from patent publication US11629171B2, “Beta-hairpin peptidomimetics” (POLYPHOR AG, priority 2017, dated 2023).

The test system of data set [1] is Acinetobacter baumannii 872842. Type of data set: cell-based. The following applies: 872842. The procedure, abridged:
(§1)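 Two-fold peptide dilutions in polysorbate 80-containing (0.002% final) cation-adjusted Mueller-Hinton II broth were inoculated with about 10^6 CFU/mL. The MIC was taken as the lowest concentration, in μg/mL, preventing visible growth at 18-20 hours and 35° C.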

Data set [2] deals with Acinetobacter baumannii DSM 30008. Format: cell-based. The settings on record: DSM 30008. An outline of the steps:
as §1

For data set [3], the system named is Enterobacter cloacae 848840. Type of data set: cell-based. The settings on record: 848840. The procedure, abridged: as §1
The subject of a further data set is Escherichia coli 926415. Format: cell-based. The settings on record: 926415. An outline of the steps:
as §1

The subject of data set [4] is Escherichia coli ATCC 25922. Format: cell-based. The following applies: ATCC 25922. An outline of the steps:
as §1

For data set [5], the system named is Klebsiella pneumoniae 968733. Format: cell-based. The following applies: 968733. The procedure, abridged:
as §1

In data set [6] the test system is Klebsiella pneumoniae SSI #3010. Format: cell-based. The settings on record: SSI #3010. The procedure, abridged: as §1
The test system of data set [7] is Pseudomonas aeruginosa ATCC 27853. Format: cell-based. The settings on record: ATCC 27853. An outline of the steps:
as §1

Data set [8] has as its system human red blood cells (hRBC). Nature of the data set: Hemolysis. Type of data set: cell-based. The settings on record: red cells of human, 1 h, 200. An outline of the steps:
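hRBC washed 4× in PBS; 200 μg/mL peptide + 20% (v/v) hRBC, 1 h, 37° C, 300 rpm. Spin, supernatant ~7.5-fold diluted, OD540 blank corrected. % hemolysis = OD540 peptide / OD540 Triton X-100 × 100.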

Another data set deals with male ICR mice. Nature of the data set: Tolerability in a mouse model (Maximum Tolerated Dose assay). Format: in vivo. The settings on record: groups of 3. The procedure, abridged:
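Groups of 3 male ICR mice weighing 23±3 g received two subcutaneous doses, 12 h apart, of 30 or 40 mg/kg in saline adjusted to pH 6.5-7.6. Observation for 30 min after each dose covered autonomic effects and acute toxicity, including death.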

The mark [9] stands for this setting: 2 × 40 mg/kg s.c. at a 12-hr interval.

Converted amounts (≈) assume the structure as drawn. Where a SMILES comes first, the peptide text is derived from it. Bridges are numbered along the chain shown (N, C = ends). Roman numbers before positions name the chains, in order. [ ]: non-standard residue; d: D form. Pen = CC(C)(S)[C@H](N)C(=O)O; dDab = NCC[C@@H](N)C(=O)O; Dab = NCC[C@H](N)C(=O)O; Abu = CC[C@H](N)C(=O)O; Dap = NC[C@H](N)C(=O)O

Regarding `CC(=O)N[C@H](C(=O)N[C@H]1CSSC[C@@H](C(=O)N[C@@H](CO)C(N)=O)NC(=O)[C@H](C(C)C)NC(=O)[C@H](CO)NC(=O)[C@H](Cc2c[nH]c3ccccc23)NC(=O)CNC(=O)[C@@H](CCN)NC(=O)[C@H](CCC(=O)N[C@@H](CCN)C(=O)N[C@H](C(=O)N[C@@H](CN)C(=O)N[C@H]2CCNC(=O)[C@H]([C@@H](C)O)NC(=O)[C@H](CCN)NC(=O)[C@H](CCN)NC(=O)[C@H](CC(C)C)NC(=O)[C@@H](CC(C)C)NC(=O)[C@H](CCN)NC2=O)[C@@H](C)O)NC(=O)[C@H](CCN)NC(=O)[C@H](Cc2ccc(O)cc2)NC1=O)C(C)C` [Ex. 350] (I: Ac-VCY[Dab]E[dDab]GWSVCS-NH2 / II: [Dab]T[Dap][Dab][Dab][dL]L[Dab][Dab]T; disulfide I:2-I:11; amide I:5-II:N; lactam II:4-II:C), the MIC (in general, the smallest concentration in the dilution series that meets the test's criterion for growth inhibition) worked out at 0.0625 µg/mL (≈ 0.0264 µM) in [1], 0.125 µg/mL (≈ 0.0528 µM) in [3], 0.125 µg/mL (≈ 0.0528 µM) in the data set with Escherichia coli 926415 and 0.125 µg/mL (≈ 0.0528 µM) in data set [5]. Besides, the “Acinetobacter baumannii DSM 30008 MIC” value in data set [2] amounted to 0.03125 µg/mL. Besides, in data set [4], the “Escherichia coli ATCC 25922 MIC” value is 0.03125 µg/mL. Moreover, the “Klebsiella pneumoniae SSI #3010 MIC” value in data set [6] is 0.125 µg/mL. Besides, the “Pseudomonas aeruginosa ATCC 27853 MIC” value in [7] is 0.125 µg/mL. Further, the “Hemolysis at 200 μg/mL” value in data set [8] is recorded as less than 1%. Further, the Mortality and dose in the data set with male ICR mice (setting [9]) is 0/3 died at 2 × 40 mg/kg.

With `CC[C@@H]1NC(=O)[C@H](CCN)NC(=O)[C@H](Cc2ccc(O)cc2)NC(=O)[C@@H](NC(=O)[C@@H](NC(C)=O)C(C)C)CSSC[C@@H](C(=O)N[C@@H](CO)C(N)=O)NC(=O)[C@H](C(C)C)NC(=O)[C@H](CO)NC(=O)[C@H](Cc2c[nH]c3ccccc23)NC(=O)[C@H](CCC(=O)N[C@@H](CCN)C(=O)N[C@H](C(=O)N[C@@H](CN)C(=O)N[C@H]2CCNC(=O)[C@H]([C@@H](C)O)NC(=O)[C@H](CCN)NC(=O)[C@H](CCN)NC(=O)[C@H](CC(C)C)NC(=O)[C@@H](CC(C)C)NC(=O)[C@H](CCN)NC2=O)[C@@H](C)O)NC(=O)[C@@H](CCN)NC1=O` [Ex. 363] (I: Ac-VCY[Dab][Abu][dDab]EWSVCS-NH2 / II: [Dab]T[Dap][Dab][Dab][dL]L[Dab][Dab]T; disulfide I:2-I:11; amide I:7-II:N; lactam II:4-II:C), the MIC in data set [1] came to 0.0625 µg/mL (≈ 0.0261 µM); in data set [3] it was 0.0625 µg/mL (≈ 0.0261 µM); with Escherichia coli 926415, 0.125 µg/mL (≈ 0.0522 µM); in data set [5], 0.125 µg/mL (≈ 0.0522 µM). The “Acinetobacter baumannii DSM 30008 MIC” value in [2] stood at 0.0625 µg/mL. Further, in data set [4], the “Escherichia coli ATCC 25922 MIC” value is 0.0625 µg/mL. Moreover, the “Klebsiella pneumoniae SSI #3010 MIC” value in data set [6] was 0.0625 µg/mL. The “Pseudomonas aeruginosa ATCC 27853 MIC” value in data set [7] is 0.125 µg/mL. Moreover, the “Hemolysis at 200 μg/mL” value in data set [8] worked out at 2%. For the same molecule, in the data set on male ICR mice (setting [9]), the Mortality and dose is 0/3 died at 2 × 40 mg/kg.

With `CC[C@@H]1NC(=O)[C@@H](CC(C)C)NC(=O)[C@H](CCN)NC(=O)[C@@H](NC(=O)[C@H](CN)NC(=O)[C@@H](NC(=O)[C@H](CCN)NC(=O)CC[C@@H]2NC(=O)[C@@H](NC(=O)[C@H](Cc3ccc(O)cc3)NC(=O)[C@@H](NC(=O)[C@@H](NC(C)=O)C(C)C)[C@@H](C)O)CSSC(C)(C)[C@@H](C(=O)N[C@H](C(=O)N[C@H](C(=O)N[C@H](C(N)=O)[C@@H](C)O)[C@@H](C)O)C(C)C)NC(=O)[C@H](Cc3c[nH]c4ccccc34)NC(=O)[C@H](CCN)NC(=O)[C@@H](CCN)NC2=O)[C@@H](C)O)CCNC(=O)[C@H]([C@@H](C)O)NC(=O)[C@H](CCN)NC(=O)[C@H](CCN)NC1=O` [Ex. 266] (I: Ac-VTYCE[dDab][Dab]W[Pen]VTT-NH2 / II: [Dab]T[Dap][Dab][Dab][dL][Abu][Dab][Dab]T; disulfide I:4-I:9; amide I:5-II:N; lactam II:4-II:C), the minimal inhibitory concentration (MIC) was 0.5 µg/mL (≈ 0.205 µM) in data set [1]; 0.0625 µg/mL (≈ 0.0256 µM) in data set [2]; 0.25 µg/mL (≈ 0.102 µM) in data set [3]; 0.5 µg/mL (≈ 0.205 µM) in the data set on Escherichia coli 926415; 0.03125 µg/mL (≈ 0.0128 µM) in [4]; 1 µg/mL (≈ 0.41 µM) in data set [5]. The values for the minimum inhibitory concentration (MIC) in data set [6] and in data set [7] were 0.0625 µg/mL (≈ 0.0256 µM) and 0.125 µg/mL (≈ 0.0512 µM), respectively. In addition, in data set [8], the “Hemolysis at 200 μg/mL” value turned out to be 1%. For the same molecule, the Mortality and dose in the data set on male ICR mice (2 × 30 mg/kg s.c. at a 12-hr interval) is given as 0/3 died at 2 × 30 mg/kg.

Take `CC(=O)N[C@H](C(=O)N[C@H]1CSSC[C@@H](C(=O)N[C@@H](CO)C(N)=O)NC(=O)[C@H](C(C)C)NC(=O)[C@H](CO)NC(=O)[C@H](Cc2c[nH]c3ccccc23)NC(=O)[C@H](CO)NC(=O)[C@@H](CCN)NC(=O)[C@H](CCC(=O)N[C@H](CCN)C(=O)N[C@H](C(=O)N[C@@H](CN)C(=O)N[C@H]2CCNC(=O)[C@H]([C@@H](C)O)NC(=O)[C@H](CCN)NC(=O)[C@H](CCN)NC(=O)[C@H](CC(C)C)NC(=O)[C@@H](CC(C)C)NC(=O)[C@H](CCN)NC2=O)[C@@H](C)O)NC(=O)[C@H](CCN)NC(=O)[C@H](Cc2ccc(O)cc2)NC1=O)C(C)C` [Ex. 310] (I: Ac-VCY[Dab]E[dDab]SWSVCS-NH2 / II: [dDab]T[Dap][Dab][Dab][dL]L[Dab][Dab]T; disulfide I:2-I:11; amide I:5-II:N; lactam II:4-II:C): the minimal inhibitory concentration (MIC) (in [1]; in data set [3]; in the data set with Escherichia coli 926415; in data set [5]) was 0.0625 µg/mL (≈ 0.0261 µM) throughout. Further, the “Acinetobacter baumannii DSM 30008 MIC” value in [2] worked out at 0.0625 µg/mL. The “Escherichia coli ATCC 25922 MIC” value in [4] came out at 0.03125 µg/mL. The “Klebsiella pneumoniae SSI #3010 MIC” value in data set [6] was determined as 0.0625 µg/mL. The “Pseudomonas aeruginosa ATCC 27853 MIC” value in data set [7] came out at 0.125 µg/mL. Besides, the “Hemolysis at 200 μg/mL” value in data set [8] is reported as less than 1%. Also, in the data set on male ICR mice (setting [9]), the Mortality and dose was 0/3 died at 2 × 40 mg/kg.

On to `CC(=O)N[C@H](C(=O)N[C@H]1CSSC[C@@H](C(=O)N[C@@H](CO)C(N)=O)NC(=O)[C@H](C(C)C)NC(=O)[C@H](CO)NC(=O)[C@H](Cc2c[nH]c3ccccc23)NC(=O)[C@H](CO)NC(=O)[C@@H](CCN)NC(=O)[C@H](CCC(=O)N[C@@H](CCN)C(=O)N[C@H](C(=O)N[C@@H](CCN)C(=O)N[C@H]2CCNC(=O)[C@H]([C@@H](C)O)NC(=O)[C@H](CCN)NC(=O)[C@H](CCN)NC(=O)[C@H]([C@@H](C)O)NC(=O)[C@@H](CC(C)C)NC(=O)[C@H](CCN)NC2=O)[C@@H](C)O)NC(=O)[C@H](CCN)NC(=O)[C@H](Cc2ccc(O)cc2)NC1=O)C(C)C` [Ex. 333] (I: Ac-VCY[Dab]E[dDab]SWSVCS-NH2 / II: [Dab]T[Dab][Dab][Dab][dL]T[Dab][Dab]T; disulfide I:2-I:11; amide I:5-II:N; lactam II:4-II:C), for which the minimum inhibitory concentration (MIC) in [1] stood at 0.5 µg/mL (≈ 0.208 µM); in data set [3], 0.25 µg/mL (≈ 0.104 µM); against Escherichia coli 926415 it was 0.5 µg/mL (≈ 0.208 µM); in data set [5], 1 µg/mL (≈ 0.417 µM). For the same molecule, the “Acinetobacter baumannii DSM 30008 MIC” value in [2] was determined as 0.125 µg/mL. Moreover, the “Escherichia coli ATCC 25922 MIC” value in data set [4] stood at 0.0625 µg/mL. For the same molecule, the “Klebsiella pneumoniae SSI #3010 MIC” value in data set [6] was 0.0625 µg/mL. In [7], the “Pseudomonas aeruginosa ATCC 27853 MIC” value came out at 0.25 µg/mL. In addition, the “Hemolysis at 200 μg/mL” value in [8] is recorded as 2%. Moreover, the Mortality and dose in the data set with male ICR mice (setting [9]) is listed as 0/3 died at 2 × 40 mg/kg.
